Data published in patent US11857550B2, “Benzathine analogs” (University of Pittsburgh—Of the Commonwealth System of …, priority 2012, dated 2024).

System: C57BL6 mice
Type: in vivo
Details: 30 ug/ml in drinking water, day 5

c1ccc(-c2ccc(CNCCNCc3ccc(-c4ccccn4)cc3)cc2)nc1 [BC-1215]
lung resistance: decreased lung resistance
